The results in this text go back to patent US20220184083A1, “USE OF AN AGENT CAPABLE OF INHIBITING THE ACTIVATION OF MAIT CELLS FOR THE TREATMENT OF OBESITY AND OBESITY-RELATED DISORDERS” (INSERM (INSTITUT NATIONAL DE LA SANTÉ ET DE LA RECHERCH …, priority 2019, published 2022).

Type in all cases: in vivo
The subject of one assay is MR1−/− mice. Description: ITT and OGTT at 12 weeks of HFD in MR1−/− mice treated with Ac-6-FP. The following applies: Ac-6-FP treated vs controls. From the text:
FIG. 5: Insulin Tolerance Test (ITT) and Oral Glucose Tolerance Test (OGTT) at 12 weeks of High Fat Diet (HFD) in MR1−/− Ac-6-FP treated mice and their respective controls.

The subject of assay [1] is visceral adipose tissue macrophages. In words: Frequency of M1 and M2 macrophages in visceral adipose tissue. The conditions noted are these: Vαl9+/− mice, treated vs non-treated. From the text: FIG. 4: Frequency of MI-macrophages (CD206−CD11c+) and M2-macrophages (CD206+CD11c−) among total macrophages and M1/M2 ratio in visceral adipose tissue from Vαl9+/− Ac-6-FP treated mice and their controls.

The next assay relates to Vαl9^+/− mice fed HFD. Description: ITT, OGTT and weight gain in Vαl9+/− mice on high fat diet treated with Ac-6-FP. From the text:
FIG. 2: Ac-6-FP treatment during HFD improved metabolic parameters. Vαl9^+/− mice fed during 6 weeks of HFD were then giving water containing 50 nm/ml of Ac-6-FP (Acetyl-6-formylpterin) (n=8) or PBS (n=7) for 8 weeks and IP injected, twice a week, 50 nm of Ac-6-FP or PBS. (A) ITT and OGTT in Vαl9^+/− Ac-6-FP-treated mice and Vαl9^+/− control mice. (B) Percentage of weight gain of Ac-6-FP-treated Vαl9^+/− mice and Vαl9^+/− control mice.

For the next assay, the system named is MAIT cells. In words: Intracellular staining of MAIT cells for IL-17A in ileum and visceral adipose tissue. The conditions noted are these: Vα19+/− mice, Ac-6-FP treated vs control (PBS). The text has this:
FIG. 3: Intra cellular staining of MAIT cells for IL-17A. Frequency of IL-17A positive MAIT cells in ileum and visceral adipose tissue from Vαl9+/− control (PBS) and Vαl9+/− Ac-6-FP treated mice.

Regarding `CC(=O)Nc1nc2ncc(C=O)nc2c(=O)[nH]1` [Ac-6-FP, acetyl-6-formylpterin], in the assay on MR1−/− mice, the “glucose tolerance (OGTT)” value was “did not have any effect” and the “insulin sensitivity (ITT)” value was “did not have any effect”. In assay [1], the “frequency of M1-like macrophages (pro-inflammatory, CD206−CD11c+)” value is recorded as “decreased frequency” and the “frequency of M2-like macrophages (anti-inflammatory, CD206+CD11c−)” value was “increased frequency”. The insulin sensitivity entry in the assay with Vαl9^+/− mice fed HFD (Ac-6-FP treatment during high fat diet (HFD), obese mice) was “improved”. The “metabolic parameters (ITT, OGTT, percentage of weight gain)” value in the assay on Vαl9^+/− mice fed HFD (Vαl9+/− mice, 6 weeks HFD, then water containing 50 nm/ml Ac-6-FP for 8 weeks plus IP 50 nm twice a week, vs PBS) was “improved”. In the assay on MAIT cells (ileum), the “production of IL-17A by MAIT cells” value is given as “decreased production”. Also, the “production of IL-17A by MAIT cells” value with MAIT cells (visceral adipose tissue) is recorded as “decreased production”.
